Reference: patent US11007250B2, “Methods and kits for treating pain” (Duke University, priority 2017, dated 2021)

Assays:
[1] = tested on: afferent fibers in sciatic nerve of melanoma-bearing mice; experiment: Spontaneous discharge recordings in mouse sciatic nerve in vivo; conditions: i.v. Nivolumab 10 mg/kg, MCI-4w, 3 h after injection
Text: Spontaneous discharge recordings in mouse sciatic nerve in vivo. Adult male mice (25-32 g) were anaesthetized with urethane (1.5 g/kg, i.p.) and monitored for loss of hind paw pinch reflex with additional injections of urethane (0.2 g/kg). The animals were artificially ventilated with oxygen on a respirator. The left thigh was shaved and an incision made parallel to the femur. The muscle was parted by blunt forceps dissection to expose the sciatic nerve proximal to the trifurcation. A cuff electrode (Microprobes) was placed loosely around the full circumference of the sciatic nerve. Skin flaps were raised to enclose a pool of mineral oil that covered the exposed regions of nerve. The spontaneous discharges in the sciatic nerve were recorded with a microelectrode AC amplifier (1800, A-M systems), filtered (low cut-off 100 Hz and hi cut-off 20 kHz) and digitized at 20 kHz (Digidata 1440A, Molecular Devices). Data were stored with a personal computer using pCLAMP 10 software and analyzed with Offline Sorter software (Plexon, Dallas, Tex.) and Origin pro 8.0 (Origin Lab). The spikes of sciatic nerve were characterized as previously reported (Xu, Z Z, et al. 2015).

[2] = tested on: DRG neurons and sciatic nerve fibers; experiment: Nivolumab binding in mouse DRG and sciatic nerve sections
Protocol: FIG. 10 (Supp. FIG. 2). […] Human IgG included as a control. *P<0.05, vs. human IgG/PD-L1, repeated measures Two-Way ANOVA, n=4 mice/group. Arrows indicate drug injections. Human IgG or monoclonal antibody injected 30 min prior to injection of PD-L1. BL, baseline. […] Arrows indicate nerve fibers. Data are mean s.e.m.
Immunohistochemistry in mouse and human tissues and quantification. After appropriate survival times, mice were deeply anesthetized with isoflurane and perfused through the ascending aorta with PBS, followed by 4% paraformaldehyde. After the perfusion, the L4-L5 spinal cord segments, L4-L5 DRGs, sciatic nerves, and melanoma tissues were removed and postfixed in the same fixative overnight. Fresh human DRGs (L4-L5) of 4 non-diseased donors from NDRI (National Disease Research Interchange) (Xu, Z Z, et al. 2015) and the attached spinal nerves were immediately fixed upon delivery in fresh 4% paraformaldehyde overnight. Spinal cord, DRG, and nerve tissue sections (10 or 14 μm) and free-floating spinal cord and skin sections (30 μm) were cut in a cryostat. […] The stained sections were examined with a Nikon fluorescence microscope, and images were captured with a CCD Spot camera. […]

mice = experiment: Tail-flick and hot-plate tests of morphine antinociception; type: in vivo, mouse
Protocol: Tail-flick test. All animals were habituated to testing environment for at least 2 days before baseline testing. Mice were gently held by a hand with a terry glove and with tails exposed. The distal 3 cm of the tail was immersed into the 50° C. hot water. The tail-flick latency was the time required for a mouse to flick or remove its tail out of the water. A maximum cut-off value of 15 seconds was set to avoid thermal injury. Tail-flick latency was determined both before and after drug injection. Data are expressed as the maximum possible effect (MPE) calculated as MPE (%)=100×[(postdrug response baseline response)/(cutoff response−baseline response)]. The MPE (%) data from each animal were converted to area under the curve (AUC).
Hot-plate test. All animals were habituated to testing environment for at least 2 days before baseline testing. […] A maximum cut-off value of 40 seconds was set to avoid tissue injury. Data are expressed as the maximum possible effect (MPE) calculated as MPE (%)=100×[(postdrug response−baseline response)/(cutoff response−baseline response)]. The MPE (%) data from each animal were converted to area under the curve (AUC).

[3] = tested on: lamina 110 neurons in spinal cord slices; experiment: Patch clamp recordings of sEPSCs in spinal cord slices; type: cell-based, mouse; conditions: Nivolumab 300 ng/ml
[4] = PD-L1 30 ng/ml, sPD-1 30 ng/ml perfusion, 3 h

Nivolumab: FDA-approved fully humanized IgG4 monoclonal anti-PD-1 antibody, Bristol-Myers Squibb
spontaneous discharges in nerve fibers [1]: significantly increased spontaneous discharges
binding in Pd1 knockout mice ([2]; Pd1−/− mice): absent
binding in wild-type (WT) mouse tissue ([2]; WT mice): binding on DRG neurons and sciatic nerve fibers
analgesic effect of morphine after Nivolumab (mice; Nivolumab 10 mg/kg i.v. 30 min before morphine 10 mg/kg s.c.): reduced analgesic effect
pain sensitivity, given with saline (mice; Nivolumab 10 mg/kg i.v. 30 min before s.c. saline): greater sensitivity to pain
effect on PD-L1's inhibition of sEPSC frequency ([3]; 3 h incubation): blocked
amplitude of spontaneous EPSCs (sEPSCs) [3, 4]: not amplitude
frequency of spontaneous EPSCs (sEPSCs) [3, 4]: increased sEPSC frequency
